This experiment addresses X-box-binding protein 1 (Homo sapiens) (UniProt P17861). The experiment in a line: inhibitors of XBP1 reporter signal, dose response, counter-screen, cell-based (AID 504313).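 Also: CHO cells carrying an XBP1 reporter stimulated with tunicamycin; potency is for inhibition of the tunicamycin-induced reporter signal.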 The settings on record: XBP1 reporter cell assay, percent of control.

The source made the active and inactive calls. No rule for the calls is given here.

Take `C#CC(=O)N(c1cccc(OC)c1)C(C(=O)NC1CCCC1)c1cccs1` (stereo unspecified): the IC50 result is “inactive”.

For the compound `CCOc1cc(NC(=O)CCl)c(OCC)cc1NC(=O)CCl`, the IC50 was > 10 µM (inactive). Next, `CC(C)=NOc1cc(NC(=O)CCl)cc([N+](=O)[O-])c1`: “inactive”; `CCC(C)(C)c1ccc(Oc2ccc(N)cc2)cc1`: less than 0.16 µM. For `CCN1C/C(=C/c2ccc(OC)c(O)c2)C(=O)/C(=C/c2ccc(OC)c(O)c2)C1`, the IC50 entry was “inactive”. Next, `CCCCCCCCNC(C)C(O)c1ccc(SC(C)C)cc1` (stereo unspecified): 4.76 µM; `CC(=O)N(C1=C(Cl)C(=O)c2ccccc2C1=O)C1CCCCC1`: “inactive”. On to `CC(=O)Nc1ccc(NC2=Nc3ccccc3N3C2=Nc2c(c(C)nn2-c2ccccc2)C3c2ccccc2)cc1` (stereo unspecified), for which the IC50 entry was “inactive”. With `Oc1ccc(Cl)cc1-c1cc(-c2ccccc2)n[nH]1` the figure was > 10 µM (inactive); with `Cc1cc(C)c(S(=O)(=O)c2ccccc2)c(OC(=O)c2cc(F)c(F)cc2Cl)n1`, “inactive”.

As for `Cc1ccccc1NC(=O)/C=C/c1ccc([N+](=O)[O-])s1`, the IC50 entry was “inactive”. With `O=C(OCn1ncc(Cl)c(Cl)c1=O)c1ccc(F)cc1` the figure was 3.7 µM. With `Cc1ccc(CNCC(O)(c2ccccc2)c2ccc(Cl)cc2)cc1` (stereo unspecified) the entry was “inactive”.

Take `Oc1ccc(/C=N/Nc2nc(-c3ccc(Cl)cc3)cc(C(F)(F)F)n2)cc1`: the IC50 was > 10 µM (inactive). Next, `O=C(OCn1ncc(Br)c(Br)c1=O)c1ccccc1Cl`: 4.81 µM. Next, `COc1cc(-c2nc3ccc4ccccc4c3c3c2CCC3)cc(OC)c1O`: “inactive”; `CCc1ccc(-c2nc(CN3CCC(C(=O)NCCN(CC)c4ccccc4)CC3)c(C)o2)cc1`: > 10 µM (inactive); `Cc1cc(C(=O)COC(=O)c2ccccc2O)c(C)n1Cc1cccs1`: < 0.16 µM (inactive). Next, `Cc1ccc(NP(=O)(Oc2ccccc2F)Oc2ccccc2F)cc1`: “inactive”. On to `CCCCCCN=C(CC)c1c(O)n(CCCC)c(=O)[nH]c1=O`, for which the IC50 entry was “inactive”. In the case of `C/C=C(\C)C(=O)OC1C(C)=C2C(C1OC(=O)CCCCC)C(C)(OC(C)=O)CC(OC(=O)CCC)C1(O)C2OC(=O)C1(C)O` (stereo unspecified), the half-maximal inhibitory concentration (IC50) was 5.03 µM. Next, `CC1CCN(C(=O)/C(=C/c2ccccc2Cl)c2ccccc2)CC1`: “inactive”. With `Cc1ccc2sc(N(CCCN(C)C)C(=O)c3nc4ccccc4s3)nc2c1C` the entry was “inactive”; with `O=c1cc(-c2c(F)c(F)c(F)c(F)c2F)oc2c(F)c(F)c(F)c(F)c12`, 4.69 µM. Turning to `CCn1c(C)nc2cc(-c3nnc(-c4c(-c5ccccc5)noc4C)o3)ccc21`, the IC50 was > 10 µM (inactive).

For `COc1cccc(N2CCN(c3ncnc4c3[nH]c3ccccc34)CC2C)c1` (stereo unspecified), the IC50 result was “inactive”. With `Cc1ccc(/C=N/N2C(=S)SC(C)(C)C2N(O)C(=O)Nc2ccc([N+](=O)[O-])cc2)cc1` (stereo unspecified) the figure was 3.54 µM; with `Cc1cccc(C)c1NC(=O)COc1ccccc1C(=O)Nc1ccc(Br)cn1`, > 10 µM (inactive); with `CCCCn1c(/N=C/c2c[nH]c3ccccc23)nc2ccccc21`, > 10 µM (inactive).

Take `CCN1/C(=C\C=C\C2=[N+](CC)c3ccccc3C2(C)C)C(C)(C)c2ccccc21`: the IC50 is less than 0.16 µM. With `O=C(Nc1ccc(OC(F)F)cc1)Nc1cccc(C(F)(F)F)c1` the figure was > 10 µM (inactive). Take `Cn1c(=O)c([N+](=O)[O-])c(Cl)c2ccccc21`: the IC50 result was “inactive”.

For the compound `CCOC(=O)c1c(C)[nH]c2c1-c1ccccc1C(=O)C2=O`, the IC50 was 1.41 µM.

Regarding `O=C1c2ccccc2C(=O)c2c1oc(C(F)(F)F)c2C(=O)c1ccccc1`, the IC50 entry was “inactive”. With `Cn1c(=O)[nH]c(=O)c2c1nc([N+](=O)[O-])n2Cc1ccccc1` the entry was “inactive”; with `O=C(/C=C/c1cccc([N+](=O)[O-])c1)n1cnc2ccccc21`, “inactive”.
